The structures appear in SMILES notation.

In one assay the target is T1, mGAT3 (Mus musculus, UniProt P31649).
T1 construct: gene Slc6a13; full-length transporter stably expressed in HEK293 cells; mouse nomenclature, equivalent of hGAT-2
T1 sequence (P31649 1-602): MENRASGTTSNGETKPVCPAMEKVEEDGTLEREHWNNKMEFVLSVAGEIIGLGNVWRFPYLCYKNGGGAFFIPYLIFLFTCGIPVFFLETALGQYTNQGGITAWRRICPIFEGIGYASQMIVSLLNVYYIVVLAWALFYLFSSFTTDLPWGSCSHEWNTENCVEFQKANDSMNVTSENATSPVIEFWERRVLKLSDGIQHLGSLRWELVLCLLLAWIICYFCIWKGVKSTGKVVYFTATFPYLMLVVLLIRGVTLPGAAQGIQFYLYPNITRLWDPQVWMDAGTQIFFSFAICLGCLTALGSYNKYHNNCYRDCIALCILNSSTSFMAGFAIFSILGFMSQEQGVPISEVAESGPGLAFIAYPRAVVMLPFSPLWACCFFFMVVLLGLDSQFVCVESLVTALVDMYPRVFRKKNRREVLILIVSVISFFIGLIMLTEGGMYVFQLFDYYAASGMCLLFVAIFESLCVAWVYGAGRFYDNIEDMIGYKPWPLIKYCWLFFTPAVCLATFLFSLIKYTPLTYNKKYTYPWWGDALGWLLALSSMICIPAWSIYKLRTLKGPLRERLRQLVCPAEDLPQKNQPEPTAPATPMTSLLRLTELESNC
Briefly: [3H]GABA uptake, intact HEK293 cells. It counts as cell-based. From the text: [3H]GABA uptake, intact HEK293 cells on mGAT3

Another assay deals with T2, mGAT4 (Mus musculus, UniProt P31650).
T2 construct: gene Slc6a11; full-length transporter stably expressed in HEK293 cells
T2 sequence (P31650 1-627): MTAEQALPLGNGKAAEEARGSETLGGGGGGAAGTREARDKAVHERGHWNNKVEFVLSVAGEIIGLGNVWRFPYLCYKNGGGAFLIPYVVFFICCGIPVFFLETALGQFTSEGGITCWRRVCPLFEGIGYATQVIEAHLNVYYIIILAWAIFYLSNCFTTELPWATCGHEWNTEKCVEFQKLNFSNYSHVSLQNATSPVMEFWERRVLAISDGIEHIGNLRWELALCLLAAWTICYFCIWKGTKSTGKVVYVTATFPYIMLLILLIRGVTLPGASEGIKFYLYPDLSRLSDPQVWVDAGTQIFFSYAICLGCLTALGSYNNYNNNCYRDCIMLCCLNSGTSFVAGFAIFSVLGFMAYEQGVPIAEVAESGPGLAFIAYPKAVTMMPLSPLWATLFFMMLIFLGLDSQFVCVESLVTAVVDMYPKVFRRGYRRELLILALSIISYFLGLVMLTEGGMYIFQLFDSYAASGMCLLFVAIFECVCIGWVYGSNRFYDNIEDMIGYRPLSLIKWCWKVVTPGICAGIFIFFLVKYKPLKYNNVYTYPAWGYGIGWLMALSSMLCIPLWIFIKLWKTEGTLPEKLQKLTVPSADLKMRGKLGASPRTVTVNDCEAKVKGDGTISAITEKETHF
Briefly: [3H]GABA uptake, intact HEK293 cells. Format: cell-based. From the text: [3H]GABA uptake, intact HEK293 cells on mGAT4

For assay [1], the target named is T3, mGAT1 (Mus musculus, UniProt P31648).
T3 construct: gene Slc6a1; full-length transporter stably expressed in HEK293 cells
The assay is described as follows: competitive MS Binding Assay, NO711 marker, HEK293 membranes. From the text:
competitive MS Binding Assay, NO711 marker, HEK293 membranes on mGAT1

Assay [2] concerns the target T3, mGAT1. The assay is described as follows: [3H]GABA uptake, intact HEK293 cells. It counts as cell-based. From the text:
[3H]GABA uptake, intact HEK293 cells on mGAT1

The target in a further assay is T4, mGAT2 (Mus musculus, UniProt P31651).
T4 construct: gene Slc6a12; full-length transporter stably expressed in HEK293 cells; mouse nomenclature, equivalent of hBGT-1
T4 sequence (P31651 1-614): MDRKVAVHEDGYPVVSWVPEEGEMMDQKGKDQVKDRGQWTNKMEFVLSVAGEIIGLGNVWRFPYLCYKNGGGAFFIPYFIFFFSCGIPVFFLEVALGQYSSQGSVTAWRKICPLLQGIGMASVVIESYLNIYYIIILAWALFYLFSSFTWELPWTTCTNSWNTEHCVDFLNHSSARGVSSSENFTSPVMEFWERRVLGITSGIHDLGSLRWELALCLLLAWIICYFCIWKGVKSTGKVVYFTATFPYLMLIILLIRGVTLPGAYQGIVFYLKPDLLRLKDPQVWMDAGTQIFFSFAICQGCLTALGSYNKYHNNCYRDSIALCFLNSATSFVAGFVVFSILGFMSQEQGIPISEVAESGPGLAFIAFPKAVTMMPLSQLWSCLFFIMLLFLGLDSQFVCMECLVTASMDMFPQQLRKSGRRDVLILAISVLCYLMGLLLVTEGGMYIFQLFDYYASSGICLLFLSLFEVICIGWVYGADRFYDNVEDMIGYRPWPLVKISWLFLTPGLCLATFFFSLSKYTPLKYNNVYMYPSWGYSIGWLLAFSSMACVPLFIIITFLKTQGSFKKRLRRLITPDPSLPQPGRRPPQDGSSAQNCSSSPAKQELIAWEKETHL
Briefly: [3H]GABA uptake, intact HEK293 cells. It counts as cell-based. From the text: [3H]GABA uptake, intact HEK293 cells on mGAT2

Turning to `O=C(O)C1CCCN(CCC=C=C(c2ccc(F)cc2)c2ccc(F)cc2)C1` (racemic) [rac-11c, rac-{1-[5,5-Bis(4-fluorophenyl)penta-3,4-dien-1-yl]piperidine-3-carboxylic acid}], the remaining activity (as a rule, the signal under treatment as a percentage of the control signal) at 100 µM on mGAT3 turned out to be 50%; at mGAT4 it was 63%. Besides, the Ki (commonly a dissociation constant, usually derived from enzyme kinetics or from competition with a known ligand) on mGAT1 [1] was 3.24 µM. Further, at mGAT1 [2], inhibition was half-maximal at 12.9 µM (IC50).
As for `O=C(O)C1CCCN(CCC=C=C(c2ccccc2)c2ccccc2)C1` (racemic) [rac-11a, rac-[1-(5,5-Diphenylpenta-3,4-dien-1-yl)piperidine-3-carboxylic acid]], the IC50 – broadly, the concentration that inhibits the measured activity by half – at mGAT2 is 178 µM; against mGAT3, 129 µM; at mGAT1 [2], 24.5 µM. At mGAT4, the remaining activity at 100 µM came to 64%. For the same compound, at mGAT1 [1], the affinity, expressed as Ki, was 5.5 µM.
